Assay [1] has as its system HLA-DR4 transgenic mice. Description: Immunization of HLA-DR4 transgenic mice with MycHSP70, serum antibody titers by ELISA. Type of assay: in vivo, mouse. The conditions noted are these: 100 μg MycHSP70 with complete Freund's adjuvant subcutaneously. On the procedure:
(§1) Figure 5 Immunization of HLA-DR4 transgenic mice with MycHSP70. (A) HLA-DR4 transgenic mice were immunized with recombinant MycHSP70. Serum anti-MycHSP70 and anti-mouse BiP antibody titers were measured in the 21 days following the first immunization. (B) Splenic CD4+ T cell proliferation from MycHSP70-immunized HLA-DR4 transgenic mice in response to MycHSP70_287–306 and BiP336–355 epitopes. Proliferation was determined by the incorporation of [3]-H thymidine. Data were representative of at least three independent trials. ***p < 0.001.
Serum antibodies were measured by ELISA as previously reported. Briefly, 96-well plates (Thermo Fisher Scientific) were coated with 5 μg/mL of each antigen and dissolved in 0.1 M NaHCO3. […]
(§2) HLA-DR4 transgenic mice were obtained from Taconic, immunized twice (day 0, 14) with 100 μg of MycHSP70 with the same volume of complete Freund’s adjuvant subcutaneously into the tails, and sacrificed on day 21. MACS-purified CD4^+ T cells (1 × 10^5/mL) were cultured with irradiated splenocytes (1 × 10^6/mL) and an antigen (10 μg/mL) in RPMI 1640 medium supplemented with 5% FCS, 2 mM L-glutamine, 100 U/ml penicillin, 100 μg/ml streptomycin, and 5 × 10^−5 M 2-mercaptoethanol in a humidified incubator at 37 °C, 5% CO2, for 72 h. ^3H-thymidine was pulsed to each well, cells were harvested after an 18-hour incubation, and analyzed with a scintillation counter.
(In general: An ELISA detects its analyte on a solid surface through an enzyme-linked reagent.)

Assay [2] deals with T cells in RA. Particulars: cited from earlier work. The text has this: MycHSP70 and BiP share 50% of their amino acid sequences, and MycHSP70_287–306 is located at a position corresponding to that of the BiP-derived HLA-DR4 effector epitope. We previously identified two major BiP-derived HLA-DR4 epitopes in RA. […] MycHSP70_287–306 strongly induces proliferation and is regarded as an effector epitope. MycHSP70_287–306 and BiP336–355 share 50% of the amino acids in their core sequences, which bind HLA-DR pockets. They also share the P4V residue, whi ...

The subject of assay [3] is CD4+ T cells from MycHSP70-immunized HLA-DR4 transgenic mice. The assay can be described thus: Splenic CD4+ T cell proliferation from MycHSP70-immunized HLA-DR4 transgenic mice in response to epitopes. Type of assay: cell-based, mouse. Particulars: antigen 10 μg/mL, 72 h, irradiated splenocytes, 3H-thymidine. The procedure:
as §1, §2

For “MycHSP70: recombinant Mycobacterial heat shock protein 70 (NCBI GenBank AF2122/97)”, the “serum antibody titers to MycHSP70” value in assay [1] (day 0 and 14, serum day 21) is recorded as “elevation”. Moreover, the “serum antibody titers to BiP” value in assay [1] (day 0 and 14, serum day 21, anti-mouse BiP) is reported as “elevation”.
Turning to “RSTMKPVQKVLEDSDLKKSD [BiP336–355, reference compound]”, in assay [2], the “T cell type recognizing the BiP-derived HLA-DR4 epitope” value was “recognized by effector T cells”. For the same substance, in assay [3], the “CD4+ T cell proliferation in response to peptide” value was “significant proliferation”.

The record behind these values is article PMC4772543, “Immune responses to Mycobacterial heat shock protein 70 accompany self-reactivity to human BiP in rheumatoid arthritis” (Scientific Reports, 2016).
